Here are results for 24 compounds from patent US20040224958A1, “Pyridopyrimidinone derivatives for treatment of neurodegenerative disease” (priority 2000, published 2004).

Structures are written as SMILES. Like-named read-outs stand apart in the source and are kept apart here.

One experiment has as its target cdc2/cyclinB (Homo sapiens, UniProt P06493). Briefly: Cyclin-Dependent Kinase Assay cdc2/cyclinB.
The next experiment concerns the target cdk4/D (Homo sapiens, UniProt P11802). Briefly: Cyclin-Dependent Kinase 4 (cdk4) Assay. The experiment is classed as biochemical. The note with it: read-out: cdk4/D IC50.
In the next experiment the target is Cdk5/p25 (Homo sapiens, UniProt Q00535). As to the kind of experiment: Cyclin-Dependent Kinase 5 High Throughput Screening (cdk5-HTS) Assay. The format is biochemical. The note with it: high throughput screen. In a few lines: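 IC50 determined from 33P incorporation into GST-RbCOOH captured on glutathione plates and read by scintillation counting. Reaction: 1.0 μg/mL Cdk5/p25, 20 μM [γ33P]ATP, pH 7.4 Tris buffer with MgCl2 and DTT, 30 min at room temperature, stopped with EDTA.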

Another experiment addresses cdk2/cyclinA (Homo sapiens, UniProt P24941). Briefly: Cyclin-Dependent Kinase Assay cdk2/cyclinA.
The target of the next experiment is cdk2/cyclinE (Homo sapiens, UniProt P24941). Briefly: Cyclin-Dependent Kinase Assay cdk2/cyclinE.

Chain of cdk4/D (P11802 whole entry): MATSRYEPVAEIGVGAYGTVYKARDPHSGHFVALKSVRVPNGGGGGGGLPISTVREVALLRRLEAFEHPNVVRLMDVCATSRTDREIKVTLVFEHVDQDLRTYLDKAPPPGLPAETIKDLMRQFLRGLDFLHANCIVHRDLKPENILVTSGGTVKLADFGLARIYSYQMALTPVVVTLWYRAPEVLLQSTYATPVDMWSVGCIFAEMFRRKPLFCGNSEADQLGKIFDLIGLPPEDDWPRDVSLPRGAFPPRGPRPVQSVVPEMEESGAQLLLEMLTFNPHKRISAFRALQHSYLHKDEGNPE
Chain of cdk4/D (P24385 whole entry, further chain): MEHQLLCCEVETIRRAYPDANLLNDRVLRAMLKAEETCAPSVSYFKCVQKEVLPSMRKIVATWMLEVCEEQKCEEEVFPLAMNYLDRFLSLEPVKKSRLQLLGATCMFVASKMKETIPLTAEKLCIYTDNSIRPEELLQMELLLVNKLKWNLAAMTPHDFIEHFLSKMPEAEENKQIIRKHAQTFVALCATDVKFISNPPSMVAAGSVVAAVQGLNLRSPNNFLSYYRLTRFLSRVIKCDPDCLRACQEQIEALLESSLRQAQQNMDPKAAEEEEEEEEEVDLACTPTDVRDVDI
Chain of cdc2/cyclinB (P06493 whole entry): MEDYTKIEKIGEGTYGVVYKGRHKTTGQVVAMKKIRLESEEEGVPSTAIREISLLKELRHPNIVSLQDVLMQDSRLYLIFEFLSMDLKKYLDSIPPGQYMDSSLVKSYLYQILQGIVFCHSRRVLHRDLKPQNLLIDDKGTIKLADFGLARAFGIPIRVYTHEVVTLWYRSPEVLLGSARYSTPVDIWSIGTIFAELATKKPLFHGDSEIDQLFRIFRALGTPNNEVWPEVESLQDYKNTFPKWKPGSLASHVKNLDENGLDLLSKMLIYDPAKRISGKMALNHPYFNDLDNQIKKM
Chain of cdc2/cyclinB (P14635 whole entry, further chain): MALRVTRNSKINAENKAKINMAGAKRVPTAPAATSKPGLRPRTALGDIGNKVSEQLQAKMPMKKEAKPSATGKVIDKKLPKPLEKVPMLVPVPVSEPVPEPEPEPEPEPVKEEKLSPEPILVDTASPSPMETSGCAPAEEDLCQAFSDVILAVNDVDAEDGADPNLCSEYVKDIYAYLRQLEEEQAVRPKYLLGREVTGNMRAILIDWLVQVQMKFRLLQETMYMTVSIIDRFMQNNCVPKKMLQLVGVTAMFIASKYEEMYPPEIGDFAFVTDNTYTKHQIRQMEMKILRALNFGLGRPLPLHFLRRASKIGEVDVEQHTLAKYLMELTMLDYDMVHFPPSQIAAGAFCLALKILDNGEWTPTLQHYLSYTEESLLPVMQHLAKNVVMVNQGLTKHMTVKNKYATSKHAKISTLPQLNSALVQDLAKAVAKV
Procedure for cdc2/cyclinB: Cyclin-Dependent Kinase Assays (cdk2/cyclinE, cdk2/cyclinA, cdc2/cyclinB)
All components except the ATP were added to the wells, and the plate was placed on a plate mixer for 2 minutes. The reaction was begun by addition of [^32P]ATP, and the plate was incubated at 25° C. for 15 minutes. The reaction was terminated by addition of 0.1 mL of 20% TCA. The plate was kept at 4° C. for at least 1 hour to allow the substrate to precipitate. The wells were then washed five times with 0.2 mL of 10% TCA and ^32p incorporation determined with a beta plate counter (Wallac Inc., Gaithersburg, Md.).

Regarding `CCCCn1c(=O)ccc2cnc(Nc3ccccc3)nc21` [Example 364, 8-Butyl-2-phenylamino-8H-pyrido[2,3-d]pyrimidin-7-one], the IC50 at cdc2/cyclinB is 200 nM; on cdk4/D it was 240 nM; against Cdk5/p25 it was 87.5 nM; on cdk2/cyclinA (cdk2/A IC50) it was 255 nM; on cdk2/cyclinE (cdk2/E IC50) it was 60.3 nM.
On the same counts, the results for `CCCCn1c(=O)ccc2cnc(Nc3ccc(OC)c(Cl)c3)nc21` [Example 365, 8-Butyl-2-(3-chloro-4-methoxy-phenylamino)-8H-pyrido[2,3-d]pyrimidin-7-one] are 204 nM, 475 nM, 59.8 nM, 446 nM and 122 nM.
On the same counts, the results for `CCCCn1c(=O)ccc2cnc(Nc3ccc(F)cc3F)nc21` [Example 368, 8-Butyl-2-(2,4-difluoro-phenylamino)-8H-pyrido[2,3-d]pyrimidin-7-one] are 1360 nM, 3010 nM, 723 nM, 3060 nM and 836 nM.
Taken in the same sequence, the figures for `CCCn1c(=O)ccc2cnc(Nc3ccc(F)c(Cl)c3)nc21` [Example 369, 2-(3-Chloro-4-fluoro-phenylamino)-8-propyl-8H-pyrido[2,3-d]pyrimidin-7-one] were 129 nM, 526 nM, 85.3 nM, 287 nM and 71.9 nM.
For the compound `CCCCn1c(=O)ccc2cnc(Nc3ccc(N(C)C(C)=O)cc3)nc21` [Example 370, N-[4-(8-Butyl-7-oxo-7,8-dihydro-pyrido[2,3-d]pyrimidin-2-ylamino)-phenyl]-N-methyl-acetamide], the IC50 stood at 808 nM against cdc2/cyclinB; 1140 nM at cdk4/D; 917 nM on Cdk5/p25; 610 nM against cdk2/cyclinA (cdk2/A IC50); 1280 nM on cdk2/cyclinE (cdk2/E IC50).
Regarding `CCCCn1c(=O)ccc2cnc(Nc3ccc(C(N)=O)cc3)nc21` [Example 371, 4-(S-Butyl-7-oxo-7,8-dihydro-pyrido[2,3-d]pyrimidin-2-ylamino)-benzamide], the IC50 at cdc2/cyclinB (read-out: cdk1/B IC50) amounted to 372 nM; on cdk4/D, 331 nM; at Cdk5/p25 it was 234 nM; on cdk2/cyclinA (read-out: cdk2/A IC50), 699 nM; on cdk2/cyclinE (read-out: cdk2/E IC50), 286 nM.
With `CCCCn1c(=O)ccc2cnc(Nc3cccc(C(F)(F)F)c3)nc21` [Example 373, 8-Butyl-2-(3-trifluoromethyl-phenylamino)-8H-pyrido[2,3-d]pyrimidin-7-one], the IC50 at cdc2/cyclinB worked out at 430 nM; on cdk4/D it was 2150 nM; against Cdk5/p25, 214 nM; against cdk2/cyclinA (cdk2/A IC50) it was 1150 nM; at cdk2/cyclinE (cdk2/E IC50) it was 208 nM.
Taken in the same sequence, the figures for `CCCCn1c(=O)ccc2cnc(Nc3ccc(Br)c(C(F)(F)F)c3)nc21` [Example 374, 2-(4-Bromo-3-trifluoromethyl-phenylamino)-8-butyl-8H-pyrido[2,3-d]pyrimidin-7-one] were 949 nM, 2940 nM, 379 nM, 2880 nM and 668 nM.
Regarding `CCCCn1c(=O)ccc2cnc(Nc3cccc(I)c3)nc21` [Example 375, 8-Butyl-2-(3-iodo-phenylamino)-8H-pyrido[2,3-d]pyrimidin-7-one], the IC50 was determined as 107 nM at cdc2/cyclinB; 720 nM at cdk4/D; 84.7 nM against Cdk5/p25; 408 nM against cdk2/cyclinA (cdk2/A IC50); 48.9 nM against cdk2/cyclinE (cdk2/E IC50).
On the same counts, the results for `CCCn1c(=O)ccc2cnc(Nc3ccc(C)c(F)c3)nc21` [Example 376, 2-(3-Fluoro-4-methyl-phenylamino)-8-propyl-8H-pyrido[2,3-d]pyrimidin-7-one] are 275 nM, 380 nM, 131 nM, 1180 nM and 400 nM.
On the same counts, the results for `CCCCn1c(=O)ccc2cnc(Nc3ccc(C)c(C)c3)nc21` [Example 377, 8-Butyl-2-(3,4-dimethyl-phenylamino)-8H-pyrido[2,3-d]pyrimidin-7-one] are 313 nM, 510 nM, 201 nM, 1100 nM and 228 nM.
On the same counts, the results for `CCCCn1c(=O)ccc2cnc(Nc3ccc4[nH]ccc4c3)nc21` [Example 378, 8-Butyl-2-(1H-indol-5-ylamino)-8H-pyrido[2,3-d]pyrimidin-7-one] are 150 nM, 97.5 nM, 96.5 nM, 340 nM and 86 nM.
Take `CCCCn1c(=O)ccc2cnc(Nc3ccc4[nH]ncc4c3)nc21` [Example 379, 8-Butyl-2-(1H-indazol-5-ylamino)-8H-pyrido[2,3-d]pyrimidin-7-one]: the IC50 was 43 nM against cdc2/cyclinB; 140 nM at cdk4/D; 46.5 nM at Cdk5/p25; 84 nM against cdk2/cyclinA (cdk2/A IC50); 27.3 nM against cdk2/cyclinE (cdk2/E IC50).
On to `CCCCn1c(=O)ccc2cnc(Nc3ccc4[nH]nnc4c3)nc21` [Example 380, 2-(1H-Benzotriazol-5-ylamino)-8-butyl-8H-pyrido[2,3-d]pyrimidin-7-one], for which the IC50 on cdc2/cyclinB was determined as 59 nM; at cdk4/D, 285 nM; against Cdk5/p25, 32.5 nM; against cdk2/cyclinA (cdk2/A IC50) it was 83 nM; against cdk2/cyclinE (cdk2/E IC50), 26 nM.
Taken in the same sequence, the figures for `CCCCn1c(=O)ccc2cnc(Nc3ccc(NC(=O)OC(C)(C)C)cc3)nc21` [Example 381, [4-(8-Butyl-7-oxo-7,8-dihydro-pyrido[2,3-d]pyrimidin-2-ylamino)-phenyl]-carbamic acid tert-butyl ester] were 150 nM, 400 nM, 205 nM, 515 nM and 133 nM.
On the same counts, the results for `CCCCn1c(=O)ccc2cnc(Nc3ccc(O)cc3F)nc21` [Example 382, 8-Butyl-2-(2-fluoro-4-hydroxy-phenylamino)-8H-pyrido[2,3-d]pyrimidin-7-one] are 1300 nM, 670 nM, 590 nM, 1550 nM and 320 nM.
Regarding `CCCCn1c(=O)ccc2cnc(Nc3ccc(O)c(Cl)c3)nc21` [Example 383, 8-Butyl-2-(3-chloro-4-hydroxy-phenylamino)-8H-pyrido[2,3-d]pyrimidin-7-one], the IC50 at cdc2/cyclinB was found to be 45.5 nM; at cdk4/D, 160 nM; at Cdk5/p25, 46.5 nM; against cdk2/cyclinA (cdk2/A IC50) it was 96.5 nM; on cdk2/cyclinE (cdk2/E IC50), 25.3 nM.
Taken in the same sequence, the figures for `CCCCn1c(=O)ccc2cnc(Nc3cc(Cl)c(O)c(Cl)c3)nc21` [Example 384, 8-Butyl-2-(3,5-dichloro-4-hydroxy-phenylamino)-8H-pyrido[2,3-d]pyrimidin-7-one] were 115 nM, 1130 nM, 91.5 nM, 98.5 nM and 25.7 nM.
In the case of `CCCCn1c(=O)ccc2cnc(Nc3ccc(OC)cc3)nc21` [Example 385, 8-Butyl-2-(4-methoxy-phenylamino)-8H-pyrido[2,3-d]pyrimidin-7-one], the IC50 against cdc2/cyclinB is 155 nM; at cdk4/D it was 1140 nM; on Cdk5/p25 it was 130 nM; at cdk2/cyclinA (cdk2/A IC50), 320 nM; on cdk2/cyclinE (cdk2/E IC50), 150 nM.
On the same counts, the results for `CCCCn1c(=O)ccc2cnc(Nc3ccc(OC)c(OC)c3)nc21` [Example 386, 8-Butyl-2-(3,4-dimethoxy-phenylamino)-8H-pyrido[2,3-d]pyrimidin-7-one] are 83 nM, 620 nM, 23.5 nM, 200 nM and 90.7 nM.
On the same counts, the results for `CCCCn1c(=O)ccc2cnc(Nc3ccc(F)cc3)nc21` [Example 387, 8-Butyl-2-(4-fluoro-phenylamino)-8H-pyrido[2,3-d]pyrimidin-7-one] are 128 nM, 285 nM, 108 nM, 160 nM and 80 nM.
Take `CCCCn1c(=O)ccc2cnc(Nc3ccc(Cl)c(C)c3)nc21` [Example 388, 8-Butyl-2-(4-chloro-3-methyl-phenylamino)-8H-pyrido[2,3-d]pyrimidin-7-one]: the IC50 against cdc2/cyclinB was 200 nM; at cdk4/D, 310 nM; at Cdk5/p25, 110 nM; against cdk2/cyclinA (cdk2/A IC50), 690 nM; at cdk2/cyclinE (cdk2/E IC50), 100 nM.
Taken in the same sequence, the figures for `CCCCn1c(=O)ccc2cnc(Nc3ccc(F)c(C(F)(F)F)c3)nc21` [Example 390, 8-Butyl-2-(4-fluoro-3-trifluoromethyl-phenylamino)-8H-pyrido[2,3-d]pyrimidin-7-one] were 220 nM, 1100 nM, 84 nM, 470 nM and 85 nM.
On the same counts, the results for `CCCCn1c(=O)ccc2cnc(Nc3ccc(F)c(C)c3)nc21` [Example 392, 8-Butyl-2-(4-fluoro-3-methyl-phenylamino)-8H-pyrido[2,3-d]pyrimidin-7-one] are 140 nM, 760 nM, 110 nM, 360 nM and 77 nM.
